The source of these data is US20250034216A1, “STEREOSELECTIVE COVALENT LIGANDS FOR ONCOGENIC AND IMMUNOLOGICAL PROTEINS” (The Scripps Research Institute, priority 2021, published 2025).

This test concerns the target T1, NSD2_C1018 (Homo sapiens, UniProt O96028).
T1 construct: endogenous in cells; host or cells: 22Rv1
T1 sequence (O96028 1-1365): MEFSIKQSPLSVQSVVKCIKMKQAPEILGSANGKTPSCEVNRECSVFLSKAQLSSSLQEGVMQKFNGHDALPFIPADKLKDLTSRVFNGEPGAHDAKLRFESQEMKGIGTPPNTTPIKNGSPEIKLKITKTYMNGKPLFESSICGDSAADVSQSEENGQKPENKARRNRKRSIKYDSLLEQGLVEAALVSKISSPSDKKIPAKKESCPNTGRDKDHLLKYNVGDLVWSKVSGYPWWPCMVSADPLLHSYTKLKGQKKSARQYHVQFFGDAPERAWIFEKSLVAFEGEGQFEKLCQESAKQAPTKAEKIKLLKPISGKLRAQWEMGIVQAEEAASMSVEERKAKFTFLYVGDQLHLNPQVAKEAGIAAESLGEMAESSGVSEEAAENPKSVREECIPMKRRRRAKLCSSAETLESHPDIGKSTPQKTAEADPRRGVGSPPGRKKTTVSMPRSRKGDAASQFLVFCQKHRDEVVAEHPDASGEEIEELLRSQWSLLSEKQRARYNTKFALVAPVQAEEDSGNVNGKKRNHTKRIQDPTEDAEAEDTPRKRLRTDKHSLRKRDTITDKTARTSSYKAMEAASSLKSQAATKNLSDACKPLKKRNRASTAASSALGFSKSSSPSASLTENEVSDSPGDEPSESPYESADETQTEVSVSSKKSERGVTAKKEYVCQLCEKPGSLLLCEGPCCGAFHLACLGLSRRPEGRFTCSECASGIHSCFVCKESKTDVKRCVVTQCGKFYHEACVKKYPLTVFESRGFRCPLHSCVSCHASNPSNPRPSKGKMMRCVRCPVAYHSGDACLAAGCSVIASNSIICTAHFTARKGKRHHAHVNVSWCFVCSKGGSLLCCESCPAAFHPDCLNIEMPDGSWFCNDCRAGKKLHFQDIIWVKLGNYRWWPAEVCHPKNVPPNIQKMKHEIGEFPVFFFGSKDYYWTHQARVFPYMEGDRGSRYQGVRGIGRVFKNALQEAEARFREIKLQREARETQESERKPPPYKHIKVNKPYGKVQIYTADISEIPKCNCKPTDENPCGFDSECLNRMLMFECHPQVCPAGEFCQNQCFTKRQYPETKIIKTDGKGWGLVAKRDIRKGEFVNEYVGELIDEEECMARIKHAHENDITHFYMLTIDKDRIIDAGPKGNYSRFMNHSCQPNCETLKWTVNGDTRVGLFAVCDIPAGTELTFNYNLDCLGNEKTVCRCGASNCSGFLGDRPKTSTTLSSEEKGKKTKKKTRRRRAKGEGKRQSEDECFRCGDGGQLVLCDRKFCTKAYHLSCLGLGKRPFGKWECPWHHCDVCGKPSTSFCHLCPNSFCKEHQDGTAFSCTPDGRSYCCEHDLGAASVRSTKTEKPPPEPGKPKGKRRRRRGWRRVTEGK
Nature of the test: IA-DTB cysteine engagement. It counts as binding. Conditions: 22Rv1 cells, 20 μM probe, 1 h, relative to DMSO. Put shortly: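 Competitive chemoproteomics: residual cysteine reactivity toward IA-DTB in lysates from probe-treated cells was quantified by TMT reporter ions relative to DMSO-treated controls. Replicates sharing cell line, probe, concentration and duration were averaged.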

As for `C=CC(=O)N1C[C@H](c2ccc(Br)cc2)[C@H]1C(=O)Nc1cccc2cccnc12` [MY-3A, (2S,3S)-1-acryloyl-3-(4-bromophenyl)-N-(quinolin-8-yl)azetidine-2-carboxamide], the “% engagement NSD2_C1018” value is given as 36.75%.
Under `C=CC(=O)N1C[C@@H](c2ccc(Br)cc2)[C@H]1C(=O)Nc1cccc2cccnc12` [MY-1A, (2S,3R)-1-acryloyl-3-(4-bromophenyl)-N-(quinolin-8-yl)azetidine-2-carboxamide] stands 16.5%; under `C=CC(=O)N1C[C@H](c2ccc(Br)cc2)[C@@H]1C(=O)Nc1cccc2cccnc12` [MY-1B, (2R,3S)-1-acryloyl-3-(4-bromophenyl)-N-(quinolin-8-yl)azetidine-2-carboxamide], 43.75%; under `C=CC(=O)N1C[C@H](c2ccc(Br)cc2)[C@H]1C(=O)Nc1cccc2cccnc12` [MY-3B, (2S,3S)-1-acryloyl-3-(4-bromophenyl)-N-(quinolin-8-yl)azetidine-2-carboxamide], 67%.
